Assay results from ChEMBL document CHEMBL5291721, “A preclinical secondary pharmacology resource illuminates target-adverse drug reaction associations of marketed drugs” (Nat Commun, 2023).

Experiments:
[1] = biological target: T1, Alpha-2A adrenergic receptor (Homo sapiens, UniProt P08913); assay type: functional, cell-based
T1 sequence (P08913 whole entry): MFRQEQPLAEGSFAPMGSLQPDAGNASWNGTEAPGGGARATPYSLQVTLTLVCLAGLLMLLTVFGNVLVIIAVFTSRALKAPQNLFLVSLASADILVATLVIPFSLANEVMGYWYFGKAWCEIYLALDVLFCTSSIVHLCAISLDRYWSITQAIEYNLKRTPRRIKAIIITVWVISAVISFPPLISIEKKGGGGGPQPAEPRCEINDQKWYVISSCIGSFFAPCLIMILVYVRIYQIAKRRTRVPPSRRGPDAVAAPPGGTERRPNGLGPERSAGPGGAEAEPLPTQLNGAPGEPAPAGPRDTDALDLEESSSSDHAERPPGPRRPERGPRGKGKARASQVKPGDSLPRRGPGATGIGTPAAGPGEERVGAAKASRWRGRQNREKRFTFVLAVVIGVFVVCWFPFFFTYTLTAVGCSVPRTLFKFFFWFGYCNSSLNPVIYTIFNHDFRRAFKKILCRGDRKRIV

[2] = biological target: T2, 5-hydroxytryptamine receptor 2C (Homo sapiens, UniProt P28335)
T2 sequence (P28335 whole entry): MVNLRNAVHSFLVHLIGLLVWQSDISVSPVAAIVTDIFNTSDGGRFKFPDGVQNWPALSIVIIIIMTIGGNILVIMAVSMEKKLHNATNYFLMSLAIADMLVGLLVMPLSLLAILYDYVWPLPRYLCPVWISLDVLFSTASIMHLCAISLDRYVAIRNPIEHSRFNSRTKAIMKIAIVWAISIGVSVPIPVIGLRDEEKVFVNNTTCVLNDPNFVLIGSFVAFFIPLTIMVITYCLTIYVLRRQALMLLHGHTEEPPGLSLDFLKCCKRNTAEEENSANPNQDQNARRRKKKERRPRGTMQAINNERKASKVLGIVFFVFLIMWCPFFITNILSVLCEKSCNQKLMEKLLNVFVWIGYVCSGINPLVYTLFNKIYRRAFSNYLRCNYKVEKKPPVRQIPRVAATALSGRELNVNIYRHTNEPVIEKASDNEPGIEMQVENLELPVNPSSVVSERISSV

[3] = biological target: T3, Gamma-aminobutyric acid receptor subunit alpha-1 (Rattus norvegicus, UniProt P62813)
[4] = biological target: Vasopressin V1a receptor (Homo sapiens, UniProt P37288)
[5] = biological target: T3, Gamma-aminobutyric acid receptor subunit alpha-1; assay type: functional
[6] = biological target: Motilin receptor (Homo sapiens, UniProt O43193)
[7] = biological target: T4, Alpha-2C adrenergic receptor (Homo sapiens, UniProt P18825); assay type: functional
T4 sequence (P18825 whole entry): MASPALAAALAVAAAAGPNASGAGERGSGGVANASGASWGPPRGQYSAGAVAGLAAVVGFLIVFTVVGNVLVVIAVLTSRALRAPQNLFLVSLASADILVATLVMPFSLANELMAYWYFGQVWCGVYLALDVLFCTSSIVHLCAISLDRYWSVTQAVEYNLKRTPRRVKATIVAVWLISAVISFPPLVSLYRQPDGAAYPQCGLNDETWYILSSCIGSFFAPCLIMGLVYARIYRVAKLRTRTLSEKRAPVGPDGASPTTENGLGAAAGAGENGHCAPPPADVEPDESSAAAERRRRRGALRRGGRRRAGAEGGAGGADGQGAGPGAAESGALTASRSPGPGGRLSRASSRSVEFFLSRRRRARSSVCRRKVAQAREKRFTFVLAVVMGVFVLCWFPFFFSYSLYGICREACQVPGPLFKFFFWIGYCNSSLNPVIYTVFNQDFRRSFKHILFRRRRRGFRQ

[8] = biological target: Mu-type opioid receptor (Homo sapiens, UniProt P35372); test: biochemical; assay type: functional
[9] = biological target: T5, Glucocorticoid receptor (Homo sapiens, UniProt P04150)
T5 sequence (P04150 whole entry): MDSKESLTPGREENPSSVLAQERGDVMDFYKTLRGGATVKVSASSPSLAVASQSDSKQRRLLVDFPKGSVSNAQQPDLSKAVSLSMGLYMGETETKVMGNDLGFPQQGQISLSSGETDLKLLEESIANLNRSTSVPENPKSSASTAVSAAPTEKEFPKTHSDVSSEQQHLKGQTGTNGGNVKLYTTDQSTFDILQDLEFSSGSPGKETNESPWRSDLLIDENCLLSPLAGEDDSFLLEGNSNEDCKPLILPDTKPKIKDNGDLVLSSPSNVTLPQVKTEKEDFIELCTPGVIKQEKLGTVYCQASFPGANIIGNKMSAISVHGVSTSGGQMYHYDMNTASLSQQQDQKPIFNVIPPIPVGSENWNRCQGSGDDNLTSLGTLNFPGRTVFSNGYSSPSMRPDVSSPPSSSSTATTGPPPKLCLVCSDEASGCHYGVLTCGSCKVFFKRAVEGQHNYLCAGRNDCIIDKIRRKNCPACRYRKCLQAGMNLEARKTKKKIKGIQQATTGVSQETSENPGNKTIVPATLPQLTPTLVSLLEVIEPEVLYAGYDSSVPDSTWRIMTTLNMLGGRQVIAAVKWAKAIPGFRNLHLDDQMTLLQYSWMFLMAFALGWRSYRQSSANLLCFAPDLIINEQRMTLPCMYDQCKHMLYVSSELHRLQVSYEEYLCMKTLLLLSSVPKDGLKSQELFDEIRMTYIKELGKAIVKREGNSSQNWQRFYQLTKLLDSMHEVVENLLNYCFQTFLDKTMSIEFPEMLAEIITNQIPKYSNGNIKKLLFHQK

[10] = biological target: T6, Alpha-1A adrenergic receptor (Homo sapiens, UniProt P35348); assay type: functional, cell-based
T6 sequence (P35348 whole entry): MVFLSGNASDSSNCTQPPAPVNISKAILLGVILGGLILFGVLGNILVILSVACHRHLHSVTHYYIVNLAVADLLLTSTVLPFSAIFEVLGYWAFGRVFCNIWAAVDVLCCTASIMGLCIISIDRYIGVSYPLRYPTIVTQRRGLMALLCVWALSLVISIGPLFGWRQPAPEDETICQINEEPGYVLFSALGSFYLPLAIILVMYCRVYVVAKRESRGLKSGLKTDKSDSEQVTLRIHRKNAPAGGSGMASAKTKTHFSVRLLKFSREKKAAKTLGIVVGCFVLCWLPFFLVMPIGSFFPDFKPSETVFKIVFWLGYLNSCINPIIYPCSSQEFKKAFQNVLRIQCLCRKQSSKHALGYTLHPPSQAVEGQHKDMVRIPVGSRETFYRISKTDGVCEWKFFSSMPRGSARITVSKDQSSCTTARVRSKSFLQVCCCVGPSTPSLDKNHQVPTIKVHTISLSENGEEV
Also: assay procedure not described here.

T3 sequence (P62813 whole entry): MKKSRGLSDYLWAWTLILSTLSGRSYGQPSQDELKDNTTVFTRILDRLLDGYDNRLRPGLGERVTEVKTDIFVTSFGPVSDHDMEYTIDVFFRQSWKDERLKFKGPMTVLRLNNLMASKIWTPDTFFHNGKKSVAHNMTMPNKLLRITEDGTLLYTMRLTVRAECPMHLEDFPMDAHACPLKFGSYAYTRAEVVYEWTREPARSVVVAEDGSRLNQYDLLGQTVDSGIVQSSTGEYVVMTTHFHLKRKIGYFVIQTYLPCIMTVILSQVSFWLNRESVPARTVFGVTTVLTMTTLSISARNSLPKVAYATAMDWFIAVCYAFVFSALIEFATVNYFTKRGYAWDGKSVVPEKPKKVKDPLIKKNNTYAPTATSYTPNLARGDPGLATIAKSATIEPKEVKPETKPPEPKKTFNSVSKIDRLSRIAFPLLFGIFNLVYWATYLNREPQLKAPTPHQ
Sequence of Motilin receptor (O43193 whole entry): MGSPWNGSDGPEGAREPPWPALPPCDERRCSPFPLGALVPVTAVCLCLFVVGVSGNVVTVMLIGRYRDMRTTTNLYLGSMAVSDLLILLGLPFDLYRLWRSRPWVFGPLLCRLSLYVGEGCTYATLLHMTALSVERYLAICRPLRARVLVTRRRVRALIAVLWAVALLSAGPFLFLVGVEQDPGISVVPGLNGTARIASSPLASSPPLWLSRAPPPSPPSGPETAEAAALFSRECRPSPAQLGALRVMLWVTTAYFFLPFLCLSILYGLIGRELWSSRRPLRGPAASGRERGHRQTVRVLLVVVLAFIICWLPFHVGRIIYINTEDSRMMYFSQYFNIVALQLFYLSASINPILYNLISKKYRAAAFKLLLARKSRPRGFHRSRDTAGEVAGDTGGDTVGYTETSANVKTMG
Sequence of Vasopressin V1a receptor (P37288 whole entry): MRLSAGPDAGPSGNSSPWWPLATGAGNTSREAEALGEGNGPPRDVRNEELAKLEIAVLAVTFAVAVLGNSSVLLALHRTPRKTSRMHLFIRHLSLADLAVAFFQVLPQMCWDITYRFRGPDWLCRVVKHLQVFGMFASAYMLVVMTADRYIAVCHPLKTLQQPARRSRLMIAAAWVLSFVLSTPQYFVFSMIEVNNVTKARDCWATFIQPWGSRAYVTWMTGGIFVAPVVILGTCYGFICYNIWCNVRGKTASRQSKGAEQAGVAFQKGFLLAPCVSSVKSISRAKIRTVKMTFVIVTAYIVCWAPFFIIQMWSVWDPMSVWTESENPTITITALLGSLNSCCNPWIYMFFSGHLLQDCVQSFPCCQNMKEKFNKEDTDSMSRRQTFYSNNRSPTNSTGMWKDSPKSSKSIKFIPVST
Sequence of Mu-type opioid receptor (P35372 whole entry): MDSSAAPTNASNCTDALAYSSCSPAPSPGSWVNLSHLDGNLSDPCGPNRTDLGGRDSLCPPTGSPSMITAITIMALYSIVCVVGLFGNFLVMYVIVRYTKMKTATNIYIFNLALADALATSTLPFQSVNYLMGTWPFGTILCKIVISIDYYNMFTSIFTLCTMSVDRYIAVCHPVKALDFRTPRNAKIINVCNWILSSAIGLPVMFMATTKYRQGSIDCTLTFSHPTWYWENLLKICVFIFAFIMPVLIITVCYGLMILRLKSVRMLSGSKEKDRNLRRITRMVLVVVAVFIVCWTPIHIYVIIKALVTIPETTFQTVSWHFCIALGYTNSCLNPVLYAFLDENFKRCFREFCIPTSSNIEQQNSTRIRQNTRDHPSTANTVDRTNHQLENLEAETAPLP

| SMILES | AC50 [1] | AC50 [2] | AC50 [3] | AC50 [4] | AC50 [5] | AC50 [6] | AC50 [7] | AC50 [8] | AC50 [9] | AC50 [10] |
| --- | --- | --- | --- | --- | --- | --- | --- | --- | --- | --- |
| CC(=O)[C@@]1(O)CC[C@H]2[C@@H]3C=C(Cl)C4=CC(=O)[C@@H]5C[C@@H]5[C@]4(C)[C@H]3CC[C@@]21C [CYPROTERONE] | > 10 µM | > 30 µM | > 10 µM | > 10 µM | > 10 µM | > 10 µM | > 10 µM | > 30 µM |  |  |
| C/C(=C\C(=O)OCCCCCCCCC(=O)O)C[C@@H]1OC[C@H](C[C@@H]2O[C@H]2[C@@H](C)[C@H](C)O)[C@@H](O)[C@H]1O [MUPIROCIN] | > 10 µM | > 30 µM | > 10 µM |  | > 10 µM | > 10 µM | > 10 µM |  | > 10 µM |  |
| CC(=O)OCC(=O)[C@@]1(O)[C@H](C)C[C@H]2[C@@H]3CCC4=CC(=O)C=C[C@]4(C)[C@@]3(F)[C@@H](O)C[C@@]21C [DEXAMETHASONE ACETATE] | > 10 µM | > 30 µM | > 10 µM | > 30 µM | > 10 µM | > 10 µM | > 10 µM |  |  | > 30 µM |
| Cc1ncc2n1-c1ccc(Cl)cc1C(c1ccccc1F)=NC2 [MIDAZOLAM] | > 10 µM | > 30 µM | > 10 µM |  | 0.0025 µM | > 10 µM | > 10 µM |  | > 30 µM | > 30 µM |
| CCN(CC)CCN1C(=O)CN=C(c2ccccc2F)c2cc(Cl)ccc21 [FLURAZEPAM] | > 10 µM | > 30 µM | > 10 µM |  | 0.0512 µM | > 10 µM | > 10 µM |  | > 30 µM | > 30 µM |
| COc1cc2c(cc1OC)C(CCc1ccc(Cl)cc1)N(C)CC2 (stereo not drawn) [METHOPHOLINE] | > 10 µM | > 30 µM | > 10 µM | > 30 µM | > 10 µM | > 30 µM | > 10 µM |  | > 30 µM |  |
| COc1cc2ncnc(Nc3ccc(F)c(Cl)c3)c2cc1NC(=O)/C=C/CN1CCCCC1 [DACOMITINIB ANHYDROUS] |  |  |  |  |  |  | 21 µM |  |  | > 30 µM |
| Nc1cc(-c2ccncc2)c[nH]c1=O [INAMRINONE] | > 10 µM | > 30 µM | > 10 µM |  | > 10 µM | > 10 µM | > 10 µM |  | > 30 µM | > 30 µM |
| Cn1cnc2c(F)c(Nc3ccc(Br)cc3Cl)c(C(=O)NOCCO)cc21 [SELUMETINIB] |  |  |  |  |  |  | > 10 µM |  |  |  |
| Cn1c(=O)cc(N2CCC[C@@H](N)C2)n(Cc2ccccc2C#N)c1=O [ALOGLIPTIN] |  | > 30 µM |  | > 10 µM | > 10 µM | > 10 µM | > 10 µM |  | > 30 µM |  |
| Oc1ccc2c(c1)[C@@]13CCCC[C@@]1(O)[C@@H](C2)N(CC1CCC1)CC3 [BUTORPHANOL] | > 30 µM | > 30 µM |  | > 30 µM | > 30 µM | > 30 µM | > 30 µM |  | > 30 µM | > 30 µM |
| OCc1cc(C(O)CNCCCCCCOCCCCc2ccccc2)ccc1O (stereo not drawn) [SALMETEROL] | > 10 µM | > 30 µM | > 10 µM |  | > 10 µM | > 10 µM | > 10 µM |  | > 30 µM |  |
| O=C1CN=C(c2ccccc2)c2cc([N+](=O)[O-])ccc2N1 [NITRAZEPAM] | > 10 µM | > 30 µM | > 10 µM |  | 0.022 µM | > 10 µM | > 10 µM | > 30 µM | > 10 µM |  |
| O=C1CN=C(c2ccccn2)c2cc(Br)ccc2N1 [BROMAZEPAM] | > 10 µM | > 30 µM | > 10 µM | > 10 µM | 0.11 µM | > 10 µM | > 10 µM |  | > 10 µM | 11 µM |
| CN(C(=O)c1c(O)c2ccccc2n(C)c1=O)c1ccccc1 [ROQUINIMEX] |  |  |  |  |  |  | > 30 µM |  |  | > 30 µM |
